In publication PMC5742776 (Foods, 2017):

Legend:
Type in all cases: biochemical
[1] = system: angiotensin-I-converting enzyme (ACE-I; EC 3.4.15.1); assay: ACE-I inhibition assay (ACE Kit-WST); details: 1 mg/mL, 37 °C, 1 h, absorbance 450 nm
Procedure: Protein isolates from all seven oat varieties and selected synthesised peptides were tested in vitro for ACE-I inhibition. The bioassay (ACE Kit—WST, Dojindo Laboratories, Kumamoto, Japan) was carried out according to the manufacturer’s instructions. First, 20 μL of each sample inhibitor at a concentration of 1 mg/mL ddH2O was added to 20 μL substrate and 20 μL enzyme working solution in triplicate. Samples were incubated at 37 °C for 1 h. Each well then had 200 μL indicator working solution added, followed by a further incubation at room temperature for 10 min. Absorbance at 450 nm was read using a FLUOstar Omega microplate reader (BMG LABTECH GmbH, Offenburg, Germany). The percentage inhibition was calculated using the following equation:% ACE-I inhibition = 100% Initial activity − Inhibitor × 100/100% Initial activity(2)

[2] = system: dipeptidyl peptidase-IV (DPP-IV; EC 3.4.14.5); details: synthesised peptides, 1 mg/mL; 10 μL sample at 1 mg/mL assay buffer + 30 μL buffer, 10 μL DPP-IV, 50 μL substrate; 37 °C, 30 min; fluorescence 355/460 nm; mean of triplicate samples
Procedure: Protein isolates from all seven oat varieties and selected synthesised peptides were tested in vitro for DPP-IV inhibition. […] First, 10 μL of each sample inhibitor at a concentration of 1 mg/mL assay buffer was added to 30 μL diluted assay buffer, 10 μL diluted DPP-IV, and 50 μL substrate solution, in triplicate. Samples were incubated at 37 °C for 30 min. Fluorescence was read with excitation wavelengths of 355 nm and emission wavelengths of 460 nm using a FLUOstar Omega microplate reader (BMG LABTECH GmbH, Offenburg, Germany). The percentage inhibition was calculated using the following equation:% DPP-IV inhibition = 100% Initial activity − Inhibitor × 100/100% Initial activity (3)

renin (EC 3.4.23.15) = assay: Renin Inhibition Screening Assay; details: synthesised peptides, 1 mg/mL; 10 μL sample at 1 mg/mL DMSO + 20 μL substrate, 150 μL buffer, 10 μL renin; 37 °C, 15 min; fluorescence 340/500 nm; mean of triplicate samples
Procedure: Protein isolates from all seven oat varieties and selected synthesised peptides were tested in vitro for renin inhibition activity. The Renin Inhibition Screening Assay (Cambridge BioSciences, Cambridge, UK) was carried out as per the manufacturer’s instructions. Briefly, 10 μL of each sample inhibitor at a concentration of 1 mg/mL dimethyl sulfoxide (DMSO) was added to 20 μL renin substrate, 150 μL assay buffer, and 10 μL renin, in triplicate. The samples were incubated at 37 °C for 15 min, and read with excitation wavelengths of 340 nm and emission wavelengths of 500 nm. Fluorescence was read using a FLUOstar Omega microplate reader (BMG LABTECH GmbH, Offenburg, Germany). The percentage inhibition was calculated using the following equation:% Renin inhibition = 100% Initial activity − Inhibitor × 100/100% Initial activity (1)

[3] = synthesised peptides, 20 μL sample at 1 mg/mL ddH2O + 20 μL substrate, 20 μL enzyme, mean of triplicate samples

% ACE-I inhibition [1, 3] [%] | Molecule | further results
 | C[C@H](CS)C(=O)N1CCC[C@H]1C(=O)O [captopril, reference compound] | % ACE-I inhibition ([1]; positive control, triplicate): 97.7% (±23.2%)
48.9 ± 7.8 | FEPL [chemically synthesised peptide; 12S globulin f(53–56), papain] | 
97 ± 16.2 | FLLA [chemically synthesised peptide; 11S globulin/12S globulin f(203–206), papain] | 
 | FPIL [chemically synthesised peptide; 11S globulin f(364–367), ficin] | % DPP-IV inhibition [2]: 13.1 ± 3.2%
53 ± 41.2 | IFFFL [chemically synthesised peptide; Avenin f(3–7), ficin] | % Renin inhibition (renin (EC 3.4.23.15)): 17.1% (±2.6%)
